Measurements: US7674938B2, “Amino alcohol derivatives, pharmaceutical compositions containing the same, and use thereof” (Kissei Pharmaceutical Co., Ltd., priority 2003, dated 2010)
pEC50: −log10 of the molar value. Read-outs that look alike come from different tables or passages of the source.

Columns and labels:
ddY mice adipocytes = test: Lipolysis in ddY mice adipocytes (free fatty acid release); type: cell-based; conditions: Mus musculus, Adipocyte, 2 h; read-out: Lipolysis acticity EC50 value
Method: Epididymal fat tissue of ddY mice (body weight 35 g) was removed and isolated to cells by collagenase (typeI, 1 mg/ml) in a culture medium (Krebs-Henseleit solution inclusive of 3% BSA, 1.2 mM CaCl2 and 25 mM HEPES but exclusive of NaHCO3; pH7.4) maintained at 37° C. After rinsing the cells in the culture medium, 50,000 cells/well were seeded in a 96-well culture plate and were incubated at 37° C. in the presence of various concentration of test compounds. Two hours later, the concentration of free fatty acid in the culture medium was measured and it was made as an index for lipolysis. The concentration of free fatty acid was measured by means of NEFA C-test wako (WAKO).
(R)-3′-[[2-[[2-(3-chlorophenyl)-2-hydroxyethyl]amino-ethoxy]-[1,1′-biphenyl]-3-carboxylic acid which was described in example 17 on WO99/65877 was also examined as a comparison example.

β2-adrenoceptor = biological target: T1, β2-adrenoceptor (Rattus norvegicus, UniProt P10608); test: β2-adrenoceptor stimulation in isolated tissue: inhibition of spontaneous contraction of pregnant rat uterus (Magnus method); design: species or system SD rat; conditions: read-out: β2 receptor EC50
T1 construct: The uterus of pregnant SD rat (Day 21 of gestation) was isolated and longitudinal muscle strip; from tissue; host or cells: pregnant SD rat uterus, longitudinal muscle strip
Method: 3) Measurement of β2-adrenoceptor Stimulation
The uterus of pregnant SD rat (Day 21 of gestation) was isolated and longitudinal muscle strip, which was avoided placenta attached part, about 15 mm in length and 5 mm in width was taken and the experiment was conducted according to a Magnus method. The preparation was suspended in a Locke-Ringer solution maintained at 37° C. and gassed with a mixed gas of 95% O2 and 5% CO2 and stretched at a tension of 0.5 g. Spontaneous contraction of uterus was outputted through an isometric force transducer and recorded on an oscillograph through a tachometer. The test compound was added cumulatively into a Magnus bath by every 5 minutes. Potencies were evaluated that the sum of uterine contraction for 5 minutes before the addition of test compounds was taken as a 100%, and compared with the sum of uterine contraction for 5 minutes after the addition of each concentration of test compounds. […] (R)-3′-[[2-[[2-(3-chlorophenyl)-2-hydroxyethyl]-aminoethoxy]-[1,1′-biphenyl]-3-carboxylic acid which was described in example 17 on WO99/65877 was also examined as a comparison example.

β1-adrenoceptor = biological target: T2, β1-adrenoceptor (Rattus norvegicus, UniProt P18090); test: β1-adrenoceptor stimulation in isolated tissue: heart rate increment of rat atrium (Magnus method); design: species or system SD rat; conditions: read-out: β1 receptor EC50
T2 construct: The atrium of male SD rat (body weight 250-400 g) was isolated; from tissue; host or cells: SD rat atrium
Method: 2) Measurement of β1-adrenoceptor Stimulation
The atrium of male SD rat (body weight 250-400 g) was isolated and the experiment was conducted according to a Magnus method. The preparation was suspended in a Krebs-Henseleit solution maintained at 37° C. and gassed with a mixed gas of 95% O2 and 5% CO2 and stretched at a tension of 0.5 g. The myocardial contractility was outputted through an isometric force transducer and recorded on an oscillograph through a tachometer. The test compound was added cumulatively into a Magunus bath.

human β2-adrenoceptor = biological target: T3, human β2-adrenoceptor (Homo sapiens, UniProt P07550); test: Agonistic activities on human β2-adrenoceptor (cAMP in transfected CHO cells); type: cell-based; conditions: intrinsic activity: maximum reaction relative to isoproterenol maximum (100%)
T3 construct: expressed in transfected cells; host or cells: CHO cells
Source text: (§1) 2. Measurement of Agonistic Activities on Human β1- and β2-adrenoceptors
(2) Human β2-adrenoceptor
The primer which added a restriction enzyme recognition region to 5′ end was designed on the basis of the base information that is registered with GenBank/EMBL data base as Accession No. M15169, and the clone was obtained by performance of PCR using human bladder origin cDNA as a template. The clone was inserted in top GEM-T vector and was amplified in Escherichia coli bacteria as a plasmid, and it was purified and the sequence of full length and around of insertion sequence determined by means of 310 Genetic Analyzer (ABI).
(2) Preparation of Human β2-adrenoceptor Expressed Cells
(§2) The plasmid (80 ng) for expression obtained in the previous section was transfected into […] suspended in DMEM containing 10% fetal bovine serum by means of Lipofectoamine2000. These cells were dispensed in 96 well plate by 5×10^4 cells/100 μL per well and were cultured under an atmosphere of 5% CO2 at 37° C. for 24 hours, and were used for the assay.
(§3) 3) Measurement of Agonistic Activities on Human β1- and β2-adrenoceptors
(§4) Test compounds were dissolved in 50% dimethyl sulfoxide to make a 10^−2 M solution. Then, a series of 1:10 dilutions containing a maximal dose of […] were prepared using D-PBS (−). The series were used for a testing sample to measure activity. The culture medium of CHO cells of previous section was removed and washed twice with 200 μL D-PBS (−) per well. After that, 50 μL of 3-isobutyl-1-methylxanthine (SIGMA, 1 mM) was added and leaved at rest for 5 minutes, and 50 μL of testing sample were added in them and they were incubated under an atomosphere of 5% CO2 at 37° C. for 30 minutes. cAMP concentrations accumulated in cells were reacted in cAMP-Screen and were detected by Microplate LuminometerTR717.

human β3-adrenoceptor = biological target: T4, human β3-adrenoceptor (Homo sapiens, UniProt P13945); test: Agonistic activities on human β3-adrenoceptor (cAMP accumulation in SK-N-MC cells); type: cell-based; conditions: for β3 receptor I.A.: intrinsic activity: maximum reaction relative to isoproterenol maximum (100%); for pEC50: read-out: β3 receptor EC50
T4 construct: SK-N-MC cells (American Type Culture Collection, 1×10^5 cell/mL) were put in 96 well plates; host or cells: SK-N-MC cells
Method: 1. Measurement of Agonistic Activities on Human β3-adrenoceptor
Test compounds were dissolved in 50% dimethyl sulfoxide to make a 10^−2 M solution. Then, a series of 1:10 dilutions containing a maximal dose of 1×10^−4 M were prepared using D-PBS (−) (Gibco-BRL: LIFE TECHNOLOGIES). The series were used for a testing sample to measure activity. SK-N-MC cells (American Type Culture Collection, 1×10^5 cell/mL) were put in 96 well plates by 100 μL and were cultured for about 24 hours. […] After that, 20 μL of 3-isobutyl-1-methylxanthine (SIGMA, 1×10^−2 mol/L D-PBS (−) solution) and 20 μL of testing sample were added in them and they were incubated under an atmosphere of 5% CO2 at 37° C. for 30 minutes. cAMP concentrations accumulated in cells were reacted in cAMP-Screen (Applied Biosystems) and were detected by Microplate LuminometerTR717 (Applied Biosystems).

human β1-adrenoceptor = biological target: T5, human β1-adrenoceptor (Homo sapiens, UniProt P08588); test: Agonistic activities on human β1-adrenoceptor (cAMP in transfected CHO cells); type: cell-based; conditions: for β1 receptor I.A.: intrinsic activity: maximum reaction relative to isoproterenol maximum (100%)
T5 construct: Both ends of a domain including full length of human β1-adrenoceptor were amplified; expressed in transfected cells; host or cells: CHO cells
Source text: as §1
(1) Human β1-adrenoceptor
Both ends of a domain including full length of human β1-adrenoceptor were amplified on the basis of DNA base information that is registered with GenBank/EMBL data base as Accession No. J03019. DNA fragment which was amplified was inserted into a vector for cloning and amplified in Escherichia coli bacteria. The plasmid which was cloned was inserted into a vector pCI-neo (Promega) for protein expression and plasmid DNA was extracted and purified, then it was used for a preparation of the following expression cells.
(1) Preparation of Human β1-adrenoceptor Expressed Cells
as §2, with “(320” for “(80”, “expression which was” for “expression”, “DMEM (Gibco-BRL: LIFE TECHNOLOGIES)” for “DMEM”, “serum (Sanko Junyaku)” for “serum”, “Lipofectoamine2000 (Invitrogen).” for “Lipofectoamine2000.”
as §3, §4

[1] = Transport study using human intestinal epithelium tissue (Caco-2); type: in vitro ADME; conditions: inside (pH 6.0) to outside (pH 7.4), 37° C., read-out: permeability coefficient Caco-2 Papp
Method: 1) Preparation of Culture Medium.
Dulbecco's modified Eagle's medium (Invitrogen Life Technologies) containing 1% fetal bovine serum (Sanko Jyunyaku), 1% MEM-nonessential amino acids, […] L-glutamine (Invitrogen Life Technologies), 1% penicillin—streptomycin 10000 units/mL-10000 μg/mL (Invitrogen Life Technologies) was prepared and used as a culture medium.
Caco-2 cells (American Type Culture Collection) were subcultured in a culture flask containing the culture medium.
After removing the culture medium before the cell reaches confluent, Caco-2 cells were washed with Hank's balanced salt solution Ca, Mg Free (Invitrogen Life Technologies).
The culture medium in the inside and outside compartments of the Traswell chamber was removed and replaced by a buffer solution containing 10 mM MES (pH 6.0) or 10 mM HEPES (pH7.4). The medium volume in the inside and outside compartments of the chamber was made at 0.1 mL (pH 6.0) and 0.5 mL (pH 7.4), respectively. The medium of the inside compartment was replaced by a buffer solution (pH 6.0) containing test compounds. For evaluating the transport of the test compounds from the inside compartment to the outside compartment, 100 μL of the outside buffer was sampled after incubating at 37° C. for 1 hr.
The apparent permeability coefficient was calculated as the following equation. The amounts of the test compounds in the outside buffer sampled were divided by incubation time. In addition, the amounts of penetration per incubation time (second) were divided by the concentration of the added test compound and the membrane surface.
[formula] • Papp is apparent permeability coefficient. (×10^−6 cm/sec) • dQ/dt is amount of penetration per incubation time. • Co is the initial concentration. (100 μM) • A is the membrane surface area. (0.33 cm^2) • The concentrations of test compounds were determined using LC/MS/MS.

T4 sequence (P13945 whole entry): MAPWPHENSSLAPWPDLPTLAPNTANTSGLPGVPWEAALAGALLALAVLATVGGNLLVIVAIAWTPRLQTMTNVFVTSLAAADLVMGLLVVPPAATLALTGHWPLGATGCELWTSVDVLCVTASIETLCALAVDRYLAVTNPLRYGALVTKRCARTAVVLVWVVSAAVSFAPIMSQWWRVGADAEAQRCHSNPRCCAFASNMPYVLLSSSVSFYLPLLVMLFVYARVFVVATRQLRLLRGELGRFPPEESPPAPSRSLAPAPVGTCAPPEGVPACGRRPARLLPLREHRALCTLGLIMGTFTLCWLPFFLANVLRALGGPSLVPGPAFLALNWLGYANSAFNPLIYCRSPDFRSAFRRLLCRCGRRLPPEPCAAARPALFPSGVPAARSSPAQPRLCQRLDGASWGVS
T1 sequence (P10608 whole entry): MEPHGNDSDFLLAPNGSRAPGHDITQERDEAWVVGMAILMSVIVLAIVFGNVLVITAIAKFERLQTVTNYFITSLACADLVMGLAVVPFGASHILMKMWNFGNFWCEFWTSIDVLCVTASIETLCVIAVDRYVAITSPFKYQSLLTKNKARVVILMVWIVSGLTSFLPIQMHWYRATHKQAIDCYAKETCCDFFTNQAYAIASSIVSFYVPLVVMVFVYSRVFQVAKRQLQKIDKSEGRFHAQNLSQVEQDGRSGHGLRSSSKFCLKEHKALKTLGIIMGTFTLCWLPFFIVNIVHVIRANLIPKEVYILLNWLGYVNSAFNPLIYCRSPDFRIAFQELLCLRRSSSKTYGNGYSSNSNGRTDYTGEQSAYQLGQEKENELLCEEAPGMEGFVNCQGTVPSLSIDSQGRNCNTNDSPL
T2 sequence (P18090 whole entry): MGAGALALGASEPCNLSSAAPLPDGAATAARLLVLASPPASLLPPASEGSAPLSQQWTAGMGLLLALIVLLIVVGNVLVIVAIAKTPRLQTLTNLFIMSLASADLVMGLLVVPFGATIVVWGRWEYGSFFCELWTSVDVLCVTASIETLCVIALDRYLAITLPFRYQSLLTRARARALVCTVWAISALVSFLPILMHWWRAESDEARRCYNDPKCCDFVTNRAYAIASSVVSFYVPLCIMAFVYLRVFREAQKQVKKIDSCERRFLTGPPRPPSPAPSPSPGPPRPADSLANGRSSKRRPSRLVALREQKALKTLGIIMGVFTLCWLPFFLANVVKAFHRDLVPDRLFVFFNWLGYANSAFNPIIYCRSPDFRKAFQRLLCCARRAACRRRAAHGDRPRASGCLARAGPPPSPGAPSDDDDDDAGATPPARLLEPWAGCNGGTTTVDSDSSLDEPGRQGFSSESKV
T3 sequence (P07550 whole entry): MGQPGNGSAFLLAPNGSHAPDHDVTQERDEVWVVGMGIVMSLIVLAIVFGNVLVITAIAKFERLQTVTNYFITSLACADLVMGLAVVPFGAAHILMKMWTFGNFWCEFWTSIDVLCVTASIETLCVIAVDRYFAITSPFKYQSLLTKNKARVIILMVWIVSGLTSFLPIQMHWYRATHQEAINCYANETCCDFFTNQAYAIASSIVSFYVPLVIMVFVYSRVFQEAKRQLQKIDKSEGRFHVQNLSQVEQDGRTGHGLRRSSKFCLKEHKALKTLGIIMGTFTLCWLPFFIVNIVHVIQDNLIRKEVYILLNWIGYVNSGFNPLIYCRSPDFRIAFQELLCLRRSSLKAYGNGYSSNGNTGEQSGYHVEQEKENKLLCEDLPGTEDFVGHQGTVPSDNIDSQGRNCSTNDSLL
T5 sequence (P08588 whole entry): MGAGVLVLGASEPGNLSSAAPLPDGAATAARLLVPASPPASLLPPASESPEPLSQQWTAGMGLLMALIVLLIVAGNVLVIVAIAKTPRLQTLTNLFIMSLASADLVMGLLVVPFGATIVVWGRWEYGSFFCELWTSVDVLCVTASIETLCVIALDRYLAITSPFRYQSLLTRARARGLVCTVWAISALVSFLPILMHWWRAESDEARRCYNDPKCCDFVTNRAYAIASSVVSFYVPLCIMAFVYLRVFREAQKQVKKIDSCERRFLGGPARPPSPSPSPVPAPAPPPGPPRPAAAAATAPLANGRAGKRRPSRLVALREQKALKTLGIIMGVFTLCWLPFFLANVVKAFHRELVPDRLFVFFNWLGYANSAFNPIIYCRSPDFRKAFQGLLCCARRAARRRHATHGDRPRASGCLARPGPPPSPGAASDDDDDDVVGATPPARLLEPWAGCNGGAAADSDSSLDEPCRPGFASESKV

O=C(O)c1cccc(-c2cccc(OCCNC[C@H](O)c3cccc(Cl)c3)c2)c1 [Comparison, reference compound]
pEC50 (ddY mice adipocytes): < 6.00
pEC50 (β2-adrenoceptor): < 5.00
pEC50 (β1-adrenoceptor): 5.73
β2 receptor I.A. (human β2-adrenoceptor): 15%
β3 receptor I.A. (human β3-adrenoceptor): 41%
pEC50 (human β3-adrenoceptor): < 5.00
pEC50 (human β1-adrenoceptor; CHO cells expressing human β1-adrenoceptor, cAMP, 50% of isoproterenol maximum, read-out: β1 receptor EC50): 6.13
β1 receptor I.A. (human β1-adrenoceptor): 60%

Cc1cc(C(=O)O)ccc1-c1cc(C)c(OCCN[C@@H](C)[C@H](O)c2ccc(O)cc2)c(C)c1 [Compound 3, 4′-{2-[(1S,2R)-2-Hydroxy-2-(4-hydroxyphenyl)-1-methylethyl-amino]ethoxy}-2,3′,5′-trimethylbiphenyl-4-carboxylic acid]
Papp at 1 h, 100 μM [1]: 19.9 ×10⁻⁶ cm/s

Cc1cc(-c2ccc(C(=O)O)c(C(C)C)c2)cc(C)c1OCCN[C@@H](C)[C@H](O)c1ccc(O)cc1 [Compound 4, 4′-{2-[(1S,2R)-2-Hydroxy-2-(4-hydroxyphenyl)-1-methylethyl-amino]ethoxy}-3-isopropyl-3′,5′-dimethylbiphenyl-4-carboxylic acid]
β2 receptor I.A. (human β2-adrenoceptor): 27%
β3 receptor I.A. (human β3-adrenoceptor): 94%
pEC50 (human β3-adrenoceptor): 6.62
Papp at 1 h, 100 μM [1]: 15.7 ×10⁻⁶ cm/s
Emax (human β1-adrenoceptor; CHO, read-out: β1 receptor EC50): < 50%
β1 receptor I.A. (human β1-adrenoceptor): 45%

CCCc1cc(C(=O)O)ccc1-c1cc(C)c(OCCN[C@@H](C)[C@H](O)c2ccc(O)cc2)c(C)c1 [Compound 26]
pEC50 (ddY mice adipocytes): 7.95
β2 receptor I.A. (human β2-adrenoceptor): 49%
β3 receptor I.A. (human β3-adrenoceptor): 125%
pEC50 (human β3-adrenoceptor): 7.24
β1 receptor I.A. (human β1-adrenoceptor): 74%
pEC50 (human β1-adrenoceptor; read-out: β1 receptor EC50): 5.64

CCc1cc(C(=O)O)ccc1-c1ccc(OCCN[C@@H](C)[C@H](O)c2ccc(O)cc2)cc1 [Compound 153, 2-Ethyl-4′-{(1S,2R)-2-[2-hydroxy-2-(4-hydroxyphenyl)-1-methylethylamino]ethoxy}biphenyl-4-carboxylic acid]
pEC50 (β2-adrenoceptor): 5.57
pEC50 (β1-adrenoceptor): < 5.00
β2 receptor I.A. (human β2-adrenoceptor): 28%
β3 receptor I.A. (human β3-adrenoceptor): 97%
pEC50 (human β3-adrenoceptor): 6.32
β1 receptor I.A. (human β1-adrenoceptor): 57%
pEC50 (human β1-adrenoceptor; read-out: β1 receptor EC50): 5.36

CC(C)c1cc(C(=O)O)ccc1-c1ccc(OCCN[C@@H](C)[C@H](O)c2ccc(O)cc2)cc1 [Compound 156]
pEC50 (ddY mice adipocytes): 7.71
pEC50 (β2-adrenoceptor): 5.23
pEC50 (β1-adrenoceptor): < 5.00
β2 receptor I.A. (human β2-adrenoceptor): 27%
β3 receptor I.A. (human β3-adrenoceptor): 239%
pEC50 (human β3-adrenoceptor): 7.60
Papp at 1 h, 100 μM [1]: 3.4 ×10⁻⁶ cm/s
β1 receptor I.A. (human β1-adrenoceptor): 87%
pEC50 (human β1-adrenoceptor; read-out: β1 receptor EC50): 4.72

CCCc1cc(C(=O)O)ccc1-c1ccc(OCCN[C@@H](C)[C@H](O)c2ccc(O)cc2)cc1 [Compound 160]
β2 receptor I.A. (human β2-adrenoceptor): 32%
β3 receptor I.A. (human β3-adrenoceptor): 91%
pEC50 (human β3-adrenoceptor): 6.70
Papp at 1 h, 100 μM [1]: 4 ×10⁻⁶ cm/s
β1 receptor I.A. (human β1-adrenoceptor): 62%
pEC50 (human β1-adrenoceptor; read-out: β1 receptor EC50): 6.10

CC(C)NCC(O)c1ccc(O)c(O)c1 (centres unmarked) [Isoproterenol, reference compound]
β3 receptor I.A. (human β3-adrenoceptor): 100%
